Laboratory results from ChEMBL document CHEMBL3576801, “Praeruptorin A inhibits in vitro migration of preosteoclasts and in vivo bone erosion, possibly due to its potential to target calmodulin” (J Nat Prod, 2015).
The source made the active and inactive calls. The calls are words filed in the database; no cut-off is given here.

Key:
[1] = target: T1, Tumor necrosis factor ligand superfamily member 11 (Mus musculus) (UniProt O35235); experiment: Inhibition of RANKL-induced fusion of preosteoclast derived from ICR mouse bone marrow-derived macrophages assessed as formation of tartrate-resistant acid phosphatase-positive multinucleated osteoclast preincubated for 30 mins with M-CSF followed by RANKL induction measured after 1 day by TRAP staining; format: functional, cell-based
T1 sequence (whole entry): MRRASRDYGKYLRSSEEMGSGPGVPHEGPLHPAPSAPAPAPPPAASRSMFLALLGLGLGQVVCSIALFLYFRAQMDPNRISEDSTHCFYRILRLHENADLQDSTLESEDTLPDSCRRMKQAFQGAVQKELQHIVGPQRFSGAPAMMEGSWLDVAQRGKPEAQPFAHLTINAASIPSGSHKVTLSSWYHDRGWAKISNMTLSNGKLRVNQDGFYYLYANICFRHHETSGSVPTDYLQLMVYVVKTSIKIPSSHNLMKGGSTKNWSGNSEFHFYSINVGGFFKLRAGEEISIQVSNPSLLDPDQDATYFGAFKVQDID

[2] = Cytotoxicity against preosteoclast derived from ICR mouse bone marrow-derived macrophages assessed as cell viability at 0.1 to 10 uM after 1 day by CCK-8 assay; format: cell-based; conditions: osteoclast, 24 h
[3] = target: T1, Tumor necrosis factor ligand superfamily member 11 (Mus musculus); experiment: Inhibition of RANKL-induced migration of preosteoclast derived from ICR mouse bone marrow-derived macrophages after 8 hrs by Boyden chamber assay; format: functional, cell-based; conditions: Osteoclast
[4] = target: Calmodulin-1 (Mus musculus) (UniProt P0DP26); experiment: Binding affinity to Ca2+/calmodulin complex in preosteoclast derived from ICR mouse bone marrow-derived macrophages assessed as inhibition of RANKL-induced NFATc1 nuclear translocation at 10 uM preincubated for 30 mins with M-CSF followed by RANKL induction measured after 3 to 7 hrs by Western blot analysis
[5] = target: Calmodulin-1 (Mus musculus) (UniProt P0DP26); experiment: (§1) Binding affinity to Ca2+/calmodulin complex in preosteoclast derived from ICR mouse bone marrow-derived macrophages assessed as inhibition of RANKL-induced NFATc1 mRNA expression at 10 uM preincubated for 30 mins with M-CSF followed by RANKL induction measured after 3 hrs by real-time PCR analysis
[6] = target: Calmodulin-1 (Mus musculus) (UniProt P0DP26); experiment: Binding affinity to Ca2+/calmodulin complex in preosteoclast derived from ICR mouse bone marrow-derived macrophages assessed as inhibition of RANKL-induced c-Fos mRNA expression at 10 uM preincubated for 30 mins with M-CSF followed by RANKL induction measured after 3 hrs by real-time PCR analysis
[7] = target: Calmodulin-1 (Mus musculus) (UniProt P0DP26); experiment: Binding affinity to Ca2+/calmodulin complex in preosteoclast derived from ICR mouse bone marrow-derived macrophages assessed as inhibition of RANKL-induced ATP6v0d2 mRNA expression at 10 uM preincubated for 30 mins with M-CSF followed by RANKL induction measured after 3 hrs by real-time PCR analysis
[8] = target: Calmodulin-1 (Mus musculus) (UniProt P0DP26); experiment: Binding affinity to Ca2+/calmodulin complex in preosteoclast derived from ICR mouse bone marrow-derived macrophages assessed as inhibition of RANKL-induced DC-STAMP mRNA expression at 10 uM preincubated for 30 mins with M-CSF followed by RANKL induction measured after 3 hrs by real-time PCR analysis
[9] = target: Calmodulin-1 (Mus musculus) (UniProt P0DP26); experiment: as §1, with “alphaV-integrin” for “NFATc1”
[10] = target: Calmodulin-1 (Mus musculus) (UniProt P0DP26); experiment: as §1, with “cathepsin K” for “NFATc1”
[11] = target: Calmodulin (Bos taurus) (UniProt P62157); experiment: Binding affinity to bovine brain calmodulin at 0.1 mM after 60 mins by gel mobility shift assay in presence of CaCl2
[12] = target: Calmodulin (Bos taurus) (UniProt P62157); experiment: Binding affinity to bovine brain calmodulin at 0.1 mM after 60 mins by gel mobility shift assay in presence of EGTA
[13] = target: Calmodulin-1 (Mus musculus) (UniProt P0DP26); experiment: Binding affinity to Ca2+/calmodulin complex in preosteoclast derived from ICR mouse bone marrow-derived macrophages assessed as inhibition of CaMK-4 phosphorylation at T196 preincubated for 30 mins with M-CSF followed by RANKL induction measured after 30 mins by Western blot analysis
[14] = target: Calmodulin-1 (Mus musculus) (UniProt P0DP26); experiment: Binding affinity to Ca2+/calmodulin complex in preosteoclast derived from ICR mouse bone marrow-derived macrophages assessed as inhibition of CREB phosphorylation at S133 preincubated for 30 mins with M-CSF followed by RANKL induction measured after 30 mins by Western blot analysis
[15] = target: Calmodulin-1 (Mus musculus) (UniProt P0DP26); experiment: Binding affinity to Ca2+/calmodulin complex in preosteoclast derived from ICR mouse bone marrow-derived macrophages assessed as inhibition of NFATc1 nuclear translocation at 0.3 to 10 uM preincubated for 30 mins with M-CSF followed by RANKL induction measured after 30 mins by Western blot analysis
[16] = target: Calmodulin-1 (Homo sapiens) (UniProt P0DP23); experiment: Binding affinity to recombinant human calmodulin assessed as inhibition of calcineurin phosphatase activity using R2 phosphopeptide substrate at 3 to 10 uM after 30 mins by malachite green staining-based colorimetric analysis in presence of CaCl2
[17] = system: Mus musculus; experiment: Antiresorptive activity in ICR mouse assessed as inhibition of LPS-induced cancellous bone loss in distal metaphysis at 2 to 4 mg/kg, ip administered for 8 days with LPS challenge on day 2 and 5 measured on day 9 by microCT analysis; format: functional, organism-based
[18] = system: Mus musculus; experiment: Antiresorptive activity in ICR mouse assessed as reduction of LPS-induced trabecular bone loss at 2 to 4 mg/kg, ip administered for 8 days with LPS challenge on day 2 and 5 measured on day 9 by hematoxylin and eosin staining; format: functional, organism-based; conditions: Trabecula
[19] = system: Mus musculus; experiment: Antiresorptive activity in ICR mouse assessed as inhibition of LPS-induced changes in bone volume/tissue volume at 2 to 4 mg/kg, ip administered for 8 days with LPS challenge on day 2 and 5 measured on day 9 by histomorphometric analysis; format: functional, organism-based
[20] = system: Mus musculus; experiment: Antiresorptive activity in ICR mouse assessed as inhibition of LPS-induced changes in trabecular thickness at 2 to 4 mg/kg, ip administered for 8 days with LPS challenge on day 2 and 5 measured on day 9 by histomorphometric analysis; format: functional, organism-based; conditions: Trabecula
[21] = system: Mus musculus; experiment: Antiresorptive activity in ICR mouse assessed as inhibition of LPS-induced changes in trabecular number at 2 to 4 mg/kg, ip administered for 8 days with LPS challenge on day 2 and 5 measured on day 9 by histomorphometric analysis; format: functional, organism-based; conditions: Trabecula
[22] = system: Mus musculus; experiment: Antiresorptive activity in ICR mouse assessed as inhibition of LPS-induced changes in bone surface/tissue volume at 2 to 4 mg/kg, ip administered for 8 days with LPS challenge on day 2 and 5 measured on day 9 by histomorphometric analysis; format: functional, organism-based
[23] = system: Mus musculus; experiment: Antiresorptive activity in ICR mouse assessed as inhibition of LPS-induced changes in trabecular separation at 2 to 4 mg/kg, ip administered for 8 days with LPS challenge on day 2 and 5 measured on day 9 by histomorphometric analysis; format: functional, organism-based; conditions: Trabecula
[24] = system: Mus musculus; experiment: Antiresorptive activity in ICR mouse assessed as inhibition of LPS-induced changes in bone mineral density at 2 to 4 mg/kg, ip administered for 8 days with LPS challenge on day 2 and 5 measured on day 9 by histomorphometric analysis; format: functional, organism-based

inhibition [4]: Active
inhibition [5]: Active
inhibition [6]: Active
inhibition [7]: Active
inhibition [8]: Active
inhibition [9]: Active
inhibition [10]: Active
Activity [11]: Active
Activity [12]: inactive
inhibition [13]: Dose-dependent effect
inhibition [14]: Dose-dependent effect
inhibition [15]: Active
inhibition [16]: Active
SMILES: C/C=C(/C)C(=O)O[C@@H]1[C@@H](OC(C)=O)c2c(ccc3ccc(=O)oc23)OC1(C)C
inhibition [1]: Dose-dependent effect
Activity [2]: Non-toxic
inhibition [3]: Dose-dependent effect
inhibition [17]: Active
Activity [18]: Active
inhibition [19]: Active
inhibition [20]: Active
inhibition [21]: Active
inhibition [22]: Active
inhibition [23]: Active
inhibition [24]: Active
